Assays:
[1] = target: T1, Hepatocyte nuclear factor 4-alpha (Homo sapiens, UniProt P41235); assay: Displacement of [3H]methyl4-[5,6,7,8-tetrahydro-5,5,8,8-tetramethyl-3-ethyloxy-2-naphthalenyl]benzoyl benzoate from HNF4alpha (unknown origin) by radioligand binding assay
T1 sequence (P41235 whole entry): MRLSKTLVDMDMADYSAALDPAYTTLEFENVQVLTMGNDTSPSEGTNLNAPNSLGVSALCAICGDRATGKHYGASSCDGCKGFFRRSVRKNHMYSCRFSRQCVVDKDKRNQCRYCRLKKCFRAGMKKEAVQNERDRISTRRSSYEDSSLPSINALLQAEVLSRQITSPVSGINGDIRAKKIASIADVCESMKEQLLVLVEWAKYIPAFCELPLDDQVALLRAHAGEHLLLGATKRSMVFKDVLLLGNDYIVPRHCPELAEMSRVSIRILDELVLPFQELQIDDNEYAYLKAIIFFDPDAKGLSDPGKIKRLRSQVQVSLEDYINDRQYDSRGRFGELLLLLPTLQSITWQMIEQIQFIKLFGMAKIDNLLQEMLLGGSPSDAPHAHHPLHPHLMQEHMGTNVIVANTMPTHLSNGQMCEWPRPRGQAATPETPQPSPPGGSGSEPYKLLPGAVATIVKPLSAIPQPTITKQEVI

[2] = target: T2, Retinoic acid receptor RXR-alpha (Homo sapiens, UniProt P19793); assay: Displacement of [3H]9-cis-retinoic acid from RXRalpha (unknown origin) by radioligand binding assay
T2 sequence (P19793 whole entry): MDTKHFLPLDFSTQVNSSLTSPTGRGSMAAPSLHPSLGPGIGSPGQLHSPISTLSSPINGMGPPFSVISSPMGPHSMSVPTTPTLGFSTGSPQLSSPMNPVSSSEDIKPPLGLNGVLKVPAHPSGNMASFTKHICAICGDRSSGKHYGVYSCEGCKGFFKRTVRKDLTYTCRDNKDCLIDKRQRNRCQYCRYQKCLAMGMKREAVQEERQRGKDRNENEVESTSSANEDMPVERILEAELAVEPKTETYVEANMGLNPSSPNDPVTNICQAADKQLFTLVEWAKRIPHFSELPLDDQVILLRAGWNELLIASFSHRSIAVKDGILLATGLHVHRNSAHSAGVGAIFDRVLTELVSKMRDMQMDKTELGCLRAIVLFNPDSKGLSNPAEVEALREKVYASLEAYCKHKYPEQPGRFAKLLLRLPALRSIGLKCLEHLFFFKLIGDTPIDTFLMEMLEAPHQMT

[3] = target: T3, Hepatocyte nuclear factor 4-alpha (Rattus norvegicus) (UniProt P22449); assay: Antagonist activity against rat HNF4alpha1 expressed in African green monkey CV1 cells assessed as reduction in endogenous agoinst-induced luciferase expression incubated for 24 hrs by firefly luciferase reporter gene assay relative to control; format: functional, cell-based; settings: CV-1
T3 sequence (whole entry): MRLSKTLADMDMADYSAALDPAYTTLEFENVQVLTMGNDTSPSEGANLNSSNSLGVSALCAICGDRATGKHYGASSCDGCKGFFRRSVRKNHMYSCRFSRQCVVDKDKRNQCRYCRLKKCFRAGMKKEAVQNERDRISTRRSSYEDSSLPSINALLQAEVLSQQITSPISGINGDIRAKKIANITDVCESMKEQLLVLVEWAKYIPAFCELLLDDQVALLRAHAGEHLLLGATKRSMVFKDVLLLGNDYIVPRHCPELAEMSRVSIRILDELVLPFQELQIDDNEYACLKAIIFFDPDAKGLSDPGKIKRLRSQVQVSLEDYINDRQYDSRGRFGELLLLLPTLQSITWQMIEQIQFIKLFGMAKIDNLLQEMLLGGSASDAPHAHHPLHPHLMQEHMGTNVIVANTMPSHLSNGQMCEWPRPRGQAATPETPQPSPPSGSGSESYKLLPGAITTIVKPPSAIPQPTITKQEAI

[4] = target: T4, Hepatocyte nuclear factor 4-alpha (Rattus norvegicus, UniProt P22449); assay: Antagonist activity against rat HNF4alpha1 expressed in African green monkey CV1 cells assessed as reduction in endogenous agoinst-induced luciferase expression incubated for 24 hrs by firefly luciferase reporter gene assay; format: functional, cell-based, CV-1
T4 sequence (P22449 whole entry): T3 sequence (whole entry)

[5] = target: T3, Hepatocyte nuclear factor 4-alpha (Rattus norvegicus); assay: Agonist activity at rat HNF4alpha1 expressed in African green monkey CV1 cells incubated for 24 hrs by firefly luciferase reporter gene assay relative to LG0100695; format: functional, cell-based; settings: CV-1
[6] = target: T4, Hepatocyte nuclear factor 4-alpha; assay: Agonist activity at rat HNF4alpha1 expressed in African green monkey CV1 cells incubated for 24 hrs by firefly luciferase reporter gene assay; format: functional, cell-based, CV-1

| Structure (SMILES) | Ki [1] [nM] | Ki [2] [nM] | Efficacy [3] [%] | IC50 [4] [nM] | Efficacy [5] [%] | EC50 [6] [nM] |
| --- | --- | --- | --- | --- | --- | --- |
| CC1(C)CCC(C)(C)c2cc(/C(=N\Nc3ccccc3)c3ccc(C(=O)O)cc3)ccc21 | 514 | > 10000 | 100 | 103 |  |  |
| Cc1c(C(=O)c2ccc(C(=O)O)cc2)cc2c(c1[N+](=O)[O-])OCCC2(C)C | 2200 | > 30000 |  |  | 88 | 2950 |
| Cc1cc2c(cc1C(NCc1cccc(F)c1)c1ccc(C(=O)O)cc1)C(C)(C)CCC2(C)C (stereo unspecified) | 1400 | 6500 |  |  |  |  |
| CC1(C)CCC(C)(C)c2c1cc(C(=O)c1ccc(C(=O)O)cc1)c(OCC(F)F)c2[N+](=O)[O-] | 163 | > 10000 |  |  | 57 | 594 |
| CCCCOC(c1ccc(C(=O)O)cc1)c1cc2c(cc1OCC)C(C)(C)CCC2(C)C (stereo unspecified) | 339 | 2700 | 108 | 4 |  |  |
| COc1c(C(=O)c2ccc(C(=O)O)cc2)cc2c(c1C)N(C)CCC2(C)C | 4600 | > 30000 |  |  | 42 | 2850 |
| Cc1ccc(S(=O)(=O)Nc2c(C)c(Cc3ccc(C(=O)O)cc3)cc3c2C(C)(C)CCC3(C)C)cc1 | 5210 | > 30000 | 121 | 22 |  |  |
| CCOc1cc2c(cc1/C(=N/OCc1cccc(F)c1F)c1ccc(C(=O)O)cc1)C(C)(C)CCC2(C)C | 966 | > 30000 | 118 | 35 |  |  |
| Cc1cc2c(cc1C(OCc1ccc(SC(F)(F)F)cc1)c1ccc(C(=O)O)cc1)C(C)(C)CCC2(C)C (stereo unspecified) | 1190 | 3000 |  |  |  |  |
| Cc1cc2c(cc1C(OCc1ccccc1F)c1ccc(C(=O)O)cc1)C(C)(C)CCC2(C)C (stereo unspecified) | 580 | 5200 | 106 | 4 |  |  |
| CCCCCCO/N=C(\c1ccc(C(=O)O)cc1)c1cc2c(cc1OCC)C(C)(C)CCC2(C)C | 322 | 1900 | 120 | 1 |  |  |
| CCOc1cc2c(cc1/C(=N/OCCC(C)C)c1ccc(C(=O)O)cc1)C(C)(C)CCC2(C)C | 244 | 4600 | 119 | 3 |  |  |
| CCOc1cc2c(cc1/C(=N/Nc1cc(F)ccc1F)c1ccc(C(=O)O)cc1)C(C)(C)CCC2(C)C | 215 | 3000 | 110 | 1 |  |  |
| Cc1cc2c(c(O)c1C(=O)c1ccc(C(=O)O)cc1)C(C)(C)CCC2(C)C | 710 | > 30000 |  |  | 103 | 2640 |
| CCOc1cc2c(cc1C(=O)c1ccc(C(=O)C(=O)O)cc1)C(C)(C)CCC2(C)C | 364 | > 10000 |  |  | 95 | 1140 |
| Cc1c(C(=O)c2ccc(C(=O)O)cc2)cc2c(c1[N+](=O)[O-])C(C)(C)CCC2(C)C | 165 | > 5000 |  |  | 43 | 2230 |
| CC1(C)CCC(C)(C)c2cc(C(=O)c3ccc(C(=O)O)cc3)c(OCC(F)(F)F)cc21 | 96 | 1500 |  |  | 33 | 2190 |
| CCOc1cc2c(cc1C(=O)c1ccc(C(=O)O)cc1)C(C)(C)CCC2(C)C | 110 | 824 |  |  | 100 | 263 |
| Cc1ccc(C)c(N/N=C(\c2ccc(C(=O)O)cc2)c2cc3c(cc2C)C(C)(C)CCC3(C)C)c1 | 1010 | > 30000 | 103 | 19 |  |  |
| CCOc1cc2c(cc1C(=O)c1ccc(C(=O)O)cc1)C(C)(C)CCO2 | 721 | 3000 |  |  | 68 | 2240 |
